Measurements reported in publication PMC8697972, “New Auranofin Analogs with Antibacterial Properties against Burkholderia Clinical Isolates” (Antibiotics, 2021).
In brackets after ≈: the same amount, converted by molar mass. Where two headings read alike, the source gives them in different places.

Tests used:
B. lata BCC6 = assay type: cell-based, Burkholderia lata
B. multivorans ATCC17616 = assay type: cell-based, Burkholderia multivorans
B. cenocepacia 140485 = assay type: cell-based, Burkholderia cenocepacia
B. cenocepacia K56-2 [1] = assay type: cell-based, Burkholderia cenocepacia; conditions: 18 h
B. dolosa CEP021 = assay type: cell-based, Burkholderia dolosa
B. contaminans MF16 = assay type: cell-based, Burkholderia contaminans
[2] = system: B. contaminans FFH-2050MA; assay type: cell-based, Burkholderia contaminans
B. contaminans FFH-4004 = assay type: cell-based, Burkholderia contaminans
B. ubonensis LMG 20358 = assay type: cell-based, Burkholderia ubonensis
members of the Bcc = experiment: MIC, summary over Bcc panel; assay type: cell-based, Burkholderia cepacia complex
[3] = system: Burkholderia cenocepacia K56-2; experiment: Time kill assays (exponential and stationary phase); conditions: time kill, 1×, 2×, 4× MIC (DOX 4× MIC), 6 h
[4] = system: Galleria mellonella larvae; experiment: Galleria toxicity
C. elegans DH26 = conditions: for Percent survival of C. elegans: 24 h; for Survival100/MIC Ratio: highest concentration with 100 percent survival divided by the compound's MIC
B. cenocepacia K56-2 [5] = experiment: Persister frequency assay; conditions: 24 h
[6] = B. cenocepacia K56-2, CAMHB, 37 °C
[7] = Burkholderia multivorans, ATCC17616
[8] = Burkholderia cenocepacia, 140485
[9] = Burkholderia contaminans, FFH2050MA
[10] = Burkholderia contaminans, FFH4004
[11] = Burkholderia ubonensis, LMG20358

In the case of `CC[P+](CC)(CC)[Au-][S]C1OC(CO)C(O)C(O)C1O` (mixture of isomers) [WB-16-EO9899], the MIC (B. lata BCC6; B. lata BCC6) is reported as 128 µg/mL, the MIC (B. multivorans ATCC17616; B. multivorans ATCC17616) is reported as 128 µg/mL and the MIC (B. cenocepacia 140485; B. cenocepacia 140485) is reported as 32 µg/mL. For the same compound, the MIC (B. cenocepacia K56-2 [1]; [6]) was > 128 µg/mL, the MIC (B. dolosa CEP021; B. dolosa CEP021) was > 128 µg/mL and the MIC (B. contaminans MF16; B. contaminans MF16) was 128 µg/mL. The MIC ([2]; B. contaminans FFH-2050MA) was 128 µg/mL, the MIC (B. contaminans FFH-4004; B. contaminans FFH-4004) was > 128 µg/mL and the MIC (B. ubonensis LMG 20358; B. ubonensis LMG 20358) was > 128 µg/mL.

`C[P+](C)(C)[Au-][S]CC(O)CO` (racemic) [WB-19-HL4171] showed an MIC (B. lata BCC6; B. lata BCC6) of 32 µg/mL, an MIC (B. multivorans ATCC17616; B. multivorans ATCC17616) of 32 µg/mL and an MIC (B. cenocepacia 140485; B. cenocepacia 140485) of 16 µg/mL. It also gave an MIC (B. cenocepacia K56-2 [1]; [6]) of 32 µg/mL, an MIC (B. dolosa CEP021; B. dolosa CEP021) of 64 µg/mL and an MIC (B. contaminans MF16; B. contaminans MF16) of 64 µg/mL. The MIC ([2]; B. contaminans FFH-2050MA) was 32 µg/mL, the MIC (B. contaminans FFH-4004; B. contaminans FFH-4004) was 32 µg/mL and the MIC (B. ubonensis LMG 20358; B. ubonensis LMG 20358) was >128 µg/mL.

Work on `CC(C)(O/N=C(\C(=O)N[C@@H]1C(=O)N2C(C(=O)[O-])=C(C[n+]3ccccc3)CS[C@H]12)c1csc(N)n1)C(=O)O` [CAZ, ceftazidime, reference compound] yielded an MIC (B. lata BCC6; Burkholderia lata, BCC6) of 64 µg/mL (≈ 117 µM), an MIC (B. multivorans ATCC17616; [7]) of 16 µg/mL (≈ 29.3 µM) and an MIC (B. cenocepacia 140485; [8]) of 8 µg/mL (≈ 14.6 µM). The MIC (B. cenocepacia K56-2 [1]; Burkholderia cenocepacia) was 32 µg/mL (≈ 58.5 µM), the MIC (B. dolosa CEP021; Burkholderia dolosa, CEP021) was 16 µg/mL (≈ 29.3 µM) and the MIC (B. contaminans MF16; Burkholderia contaminans, MF16) was 32 µg/mL (≈ 58.5 µM). It also gave an MIC [2, 9] of 8 µg/mL (≈ 14.6 µM), an MIC (B. contaminans FFH-4004; [10]) of 8 µg/mL (≈ 14.6 µM) and an MIC (B. ubonensis LMG 20358; [11]) of 16 µg/mL (≈ 29.3 µM).

`C[C@H]1c2cccc(O)c2C(=O)C2=C(O)[C@]3(O)C(=O)C(C(N)=O)=C(O)[C@@H](N(C)C)[C@@H]3[C@@H](O)[C@@H]21` [DOX, doxycycline, reference compound] was tested, and the MIC (B. lata BCC6; Burkholderia lata, BCC6) was 4 µg/mL (≈ 9 µM), the MIC (members of the Bcc; Burkholderia cepacia, read-out: MIC values against some isolates from the Bcc, lowest values, some isolates) was 1 µg/mL (≈ 2.25 µM) and the “MIC values against some isolates from the Bcc” value (members of the Bcc; lowest values, some isolates) was 2 µg/mL (≈ 4.5 µM). The MIC (B. multivorans ATCC17616; [7]) was 2 µg/mL (≈ 4.5 µM), the “killing of stationary (non-replicating) phase cells” value [3] was “unable to kill cells” and the MIC (B. cenocepacia 140485; [8]) was 1 µg/mL (≈ 2.25 µM). It also gave an MIC (B. cenocepacia K56-2 [1]; Burkholderia cenocepacia) of 4 µg/mL (≈ 9 µM), an MIC (B. dolosa CEP021; Burkholderia dolosa, CEP021) of 16 µg/mL (≈ 36 µM) and an MIC (B. contaminans MF16; Burkholderia contaminans, MF16) of 16 µg/mL (≈ 36 µM). For the same compound, the MIC [2, 9] was 2 µg/mL (≈ 4.5 µM), the MIC (B. contaminans FFH-4004; [10]) was 8 µg/mL (≈ 18 µM) and the “Galleria Survival” value ([4]; 1.0 mg/kg, 24 h) was 96.7%. For the same compound, the “Galleria Survival” value ([4]; 1.0 mg/kg, 48 h) was 96.7%, the “Galleria Survival” value ([4]; 1.0 mg/kg, 72 h) was 96.7% and the “Galleria Survival” value ([4]; 2.0 mg/kg, 24 h) was 93.3%. The “Galleria Survival” value ([4]; 2.0 mg/kg, 48 h) was 93.3%, the “Galleria Survival” value ([4]; 2.0 mg/kg, 72 h) was 93.3% and the “Galleria Survival” value ([4]; 5.0 mg/kg, 24 h) was 93.3%. The “Galleria Survival” value ([4]; 5.0 mg/kg, 48 h) was 90.0%, the “Galleria Survival” value ([4]; 5.0 mg/kg, 72 h) was 90.0% and the “Galleria Survival” value ([4]; 10.0 mg/kg, 24 h) was 93.3%. For the same compound, the “Galleria Survival” value ([4]; 10.0 mg/kg, 48 h) was 93.3%, the “Galleria Survival” value ([4]; 10.0 mg/kg, 72 h) was 93.3% and the “Percent survival of C. elegans” value (C. elegans DH26; 4 μg/mL) was 100%. The “Percent survival of C. elegans” value (C. elegans DH26; 8 μg/mL) was 97.4%, the “Percent survival of C. elegans” value (C. elegans DH26; 16 μg/mL) was 100% and the “Percent survival of C. elegans” value (C. elegans DH26; 32 μg/mL) was 98.2%. For the same compound, the “Percent survival of C. elegans” value (C. elegans DH26; 64 μg/mL) was 100%, the “Percent survival of C. elegans” value (C. elegans DH26; 128 μg/mL) was 91.5% and the “Percent survival of C. elegans” value (C. elegans DH26; 256 μg/mL) was 79.5%. For the same compound, the “Survival100/MIC Ratio” value (C. elegans DH26) was 16 and the MIC (B. ubonensis LMG 20358; [11]) was 4 µg/mL (≈ 9 µM).

`C[C@@H](O)[C@H]1C(=O)N2C(C(=O)O)=C(S[C@@H]3CN[C@H](C(=O)N(C)C)C3)[C@H](C)[C@H]12` [MEM, meropenem, reference compound] was tested, and the MIC (B. lata BCC6; Burkholderia lata, BCC6) was 4 µg/mL (≈ 10.4 µM), the “persister frequency (percent survival)” value (B. cenocepacia K56-2 [5]; 5× MIC) was “low amount of persisters” and the “persister frequency (percent survival)” value (B. cenocepacia K56-2 [5]; 10× MIC) was “low amount of persisters”. The “persister frequency (percent survival)” value (B. cenocepacia K56-2 [5]; 5× and 10× MIC tested, concentration not told apart) was 5–7%, the MIC (B. multivorans ATCC17616; [7]) was 4 µg/mL (≈ 10.4 µM) and the MIC (B. cenocepacia 140485; [8]) was 16 µg/mL (≈ 41.7 µM). The MIC (B. cenocepacia K56-2 [1]; Burkholderia cenocepacia) was 16 µg/mL (≈ 41.7 µM), the MIC (B. dolosa CEP021; Burkholderia dolosa, CEP021) was 8 µg/mL (≈ 20.9 µM) and the MIC (B. contaminans MF16; Burkholderia contaminans, MF16) was 8 µg/mL (≈ 20.9 µM). For the same compound, the MIC [2, 9] was 4 µg/mL (≈ 10.4 µM), the MIC (B. contaminans FFH-4004; [10]) was 8 µg/mL (≈ 20.9 µM) and the “Percent survival of C. elegans” value (C. elegans DH26; 4 μg/mL) was 100%. The “Percent survival of C. elegans” value (C. elegans DH26; 8 μg/mL) was 100%, the “Percent survival of C. elegans” value (C. elegans DH26; 16 μg/mL) was 100% and the “Percent survival of C. elegans” value (C. elegans DH26; 32 μg/mL) was 100%. For the same compound, the “Percent survival of C. elegans” value (C. elegans DH26; 64 μg/mL) was 100%, the “Percent survival of C. elegans” value (C. elegans DH26; 128 μg/mL) was 97.4% and the “Percent survival of C. elegans” value (C. elegans DH26; 256 μg/mL) was 93.2%. For the same compound, the “Survival100/MIC Ratio” value (C. elegans DH26) was 4, the “Survival100/MIC Ratio” value (C. elegans DH26; listed as meropenem) was “four” and the MIC (B. ubonensis LMG 20358; [11]) was 16 µg/mL (≈ 41.7 µM).

`NC[C@H]1O[C@H](O[C@H]2[C@H](O)[C@@H](O[C@H]3O[C@H](CO)[C@@H](O)[C@H](N)[C@H]3O)[C@H](N)C[C@@H]2N)[C@H](N)C[C@@H]1O` [TOB, tobramycin, reference compound] gave an MIC (B. lata BCC6; Burkholderia lata, BCC6) of 128 µg/mL (≈ 274 µM), an MIC (B. multivorans ATCC17616; [7]) of 64 µg/mL (≈ 137 µM) and an MIC (B. cenocepacia 140485; [8]) of 128 µg/mL (≈ 274 µM). It also gave an MIC (B. cenocepacia K56-2 [1]; Burkholderia cenocepacia) of 512 µg/mL (≈ 1100 µM), an MIC (B. dolosa CEP021; Burkholderia dolosa, CEP021) of 128 µg/mL (≈ 274 µM) and an MIC (B. contaminans MF16; Burkholderia contaminans, MF16) of 32 µg/mL (≈ 68.4 µM). It also gave an MIC [2, 9] of 128 µg/mL (≈ 274 µM), an MIC (B. contaminans FFH-4004; [10]) of 64 µg/mL (≈ 137 µM) and an MIC (B. ubonensis LMG 20358; [11]) of 128 µg/mL (≈ 274 µM).
